Source: patent US6355409B1, “Tagatose as a cytoprotective supplement for the removal and/or storage of organs to reduce reperfusion injury” (Biospherics Incorporated, priority 2000, dated 2002)

Experiments:
[1] = high concentrations; cited from earlier work
liver cells = test: Exposure of organ cells to tagatose, ATP level; assay type: cell-based; conditions: exposure of organ cells such as liver cells to tagatose
organ, e.g., a liver = test: Removal and/or storage of organ in tagatose-containing organ storage solution (Examples 1-3); set-up: species or system human; conditions: tagatose solution containing about 0.36% by weight of tagatose, with nutrients and electrolytes
From the text: After the organ, e.g., a liver is accessed by surgery on a human subject, three liters of chilled tagatose solution containing about 0.36% by weight of tagatose are used to flush the blood from it and to cool the organ while still on the body. The tagatose solution contains the amounts of nutrients and electrolytes common to present day storage solutions, such as Viaspan. […] The organ is then removed and placed into a chilled sterile container, holding more of the tagatose solution, for refrigerated storage until the transplant occurs. The ischemia time is shorter in this procedure than in Example 1. The donor organ is removed and perfused with tagatose solution containing about 0.36% by weight of tagatose that, again, contains the requisite nutrients and electrolytes. The organ is then placed into a sterile container that contains more of the same tagatose solution. That sterile container is placed into two more sterile containers and is then placed on ice for immediate transit to the organ recipient. The organ is removed as described in Example 1. It is flushed and perfused with tagatose solution, containing about 0.36% by weight of tagatose, and containing the requisite nutrients and electrolytes. The organ is placed in a sterile container with more of the same tagatose solution. Two protocols may be used for storage a. […]

| Structure (SMILES) | toxicity [1] | ATP in organ cells (liver cells) | reperfusion injury of the organ (organ, e.g., a liver) |
| --- | --- | --- | --- |
| CC(=O)N(O)CCCCCNC(=O)CCC(=O)N(O)CCCCCNC(=O)CCC(=O)N(O)CCCCCN [deferoxamine] | toxic at high concentrations |  |  |
| O=C(CO)[C@@H](O)[C@@H](O)[C@H](O)CO [tagatose] |  | massively decreases ATP | reduces reperfusion injury |
